According to the Kinase Knowledgebase extract (Sharma et al. 2016):
pIC50: −log10 of the molar value.

Legend:
MAPK14 (rat) = conditions: pbmc
MAPK14 (human) [1] = target: MAPK14 (human) (UniProt Q16539); conditions: pbmc
MAPK14 (dog) = conditions: pbmc
[2] = target: MAPK14, Q16539 [p38 beta Inhibition]
MAPK14 = MAPK14 (UniProt Q16539)
MAPK14 (human) [3] = target: MAPK14 (human) (UniProt Q16539); conditions: pbmc; remark: listed apart in the source
MAPK14 (human) [4] = target: MAPK14 (human) (UniProt Q16539); conditions: pbmc; remark: listed apart in the source
MAPK14 (human) [5] = target: MAPK14 (human) (UniProt Q16539); conditions: pbmc; remark: listed apart in the source

MAPK14 (human), sequence (Q16539 whole entry, looked up): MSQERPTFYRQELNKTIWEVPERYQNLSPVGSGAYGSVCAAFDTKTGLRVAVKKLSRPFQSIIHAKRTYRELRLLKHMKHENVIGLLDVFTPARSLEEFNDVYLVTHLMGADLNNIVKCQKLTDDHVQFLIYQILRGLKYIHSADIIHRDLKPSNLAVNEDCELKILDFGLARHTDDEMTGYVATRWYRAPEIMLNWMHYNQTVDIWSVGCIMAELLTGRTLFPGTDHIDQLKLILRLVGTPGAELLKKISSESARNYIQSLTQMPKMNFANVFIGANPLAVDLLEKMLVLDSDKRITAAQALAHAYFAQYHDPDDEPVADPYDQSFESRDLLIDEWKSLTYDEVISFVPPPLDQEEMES
MAPK14, Q16539 [p38 beta Inhibition], sequence (Q16539 whole entry, looked up, change not shown): as the sequence (Q16539 whole entry, looked up) above
MAPK14, sequence (Q16539 whole entry, looked up): as above

Q: `OCCC#Cc1nc(-c2ccc(F)cc2)c(-c2ccncc2)n1CCCc1ccccc1` was tested. Which pIC50 (MAPK14 (rat)) did it give?
A: The pIC50 was 6.24.

Q: And the pIC50 (MAPK14 (human) [1])?
A: The pIC50 was 7.96.

Q: What about the pIC50 (MAPK14 (dog)) of the same molecule?
A: The pIC50 was 7.82.

Q: And the pIC50 [2]?
A: Its pIC50 is 4.96.

Q: What about the pIC50 (MAPK14) of the same molecule?
A: Its pIC50 is 6.00.

Q: What about the pIC50 (MAPK14 (human) [3]) of the same molecule?
A: Its pIC50 is 8.22.

Q: What about the pIC50 (MAPK14 (human) [4]) of the same molecule?
A: The pIC50 was 7.89.

Q: And the pIC50 (MAPK14 (human) [5])?
A: Its pIC50 is 8.52.
